Measurements: publication PMC10816640, “Discovery of Novel Diphenyl Acrylonitrile Derivatives That Promote Adult Rats’ Hippocampal Neurogenesis” (International Journal of Molecular Sciences, 2024)
“Also recorded” adds a separate entry of the source.

Assays:
[1] = tested on: newborn neural progenitor cells (differentiation into mature neurons); experiment: Differentiation stage of neurogenesis: NeuN/BrdU double staining, rats sacrificed 28 days after BrdU; type: in vivo, rat; details: for neurogenesis-promoting activity (number of NeuN+ and BrdU+ cells), differentiation stage: nine-week-old rats (n = 4), i.p. 4.0 mg/kg
From the text: (§1) Previous in vitro or in vivo studies mainly focused on stimulating the proliferation effect of the small molecules. In this study, a two-step protocol was employed. First, the stimulating function of the compounds on progenitor cells in the rodents’ hippocampi was examined with using bromodeoxyuridine (BrdU) labeling. Next, the potent compounds were further screened to ascertain their ability to promote the differentiation of neural progenitor cells, as confirmed by dual labeling of BrdU and NeuN (neuronal nuclear antigen).
The study employed a rat model, wherein nine-week-old rats were administered intraperitoneally with the compound at a dose of 4.0 mg/kg/day for 28 days and then treated with a pulse of BrdU. Instead of sacrificing the rats 24 h after the BrdU injections, the rats were sacrificed after another 28 days. The brains were then isolated and cryosectioned. Eight randomly selected slices were subjected to immunohistochemical staining. This staining enabled the co-localization of the BrdU-incorporated cells with the NeuN marker, enabling the definition of the compounds that could promote the differentiation of newborn neural progenitor cells into mature functional neurons.
(§2) The compounds were dissolved in reagent-grade soybean oil containing 10% ethanol to reach a drug concentration of 2.8 mg/mL. The rats in the experimental group received intraperitoneal injections of the compounds at a dose of 4.0 mg/kg/d for 28 consecutive days. As a control, the vehicle group was administered injections of reagent-grade soybean oil containing 10% ethanol. BrdU (Sigma-Aldrich, St. louis, MA, USA) solution, prepared in physiological saline at a concentration of 10 mg/mL, was administered to all rats on day 29. Each rat received two injections of BrdU at a dosage of 50 mg/kg, with a 2 h interval between injections. The rats were euthanized 24 h (or 28 days) after the final BrdU injection.
(§3) Two or four rats per group were anesthetized using pentobarbital sodium (70 mg/kg) and subsequently perfused with physiological saline. The brain tissue was carefully dissected and fixed in 4% paraformaldehyde at 4 °C for one week. Next, the brain tissue underwent dehydration using a phosphate-buffered saline (PBS) solution containing 20% to 30% sucrose. Finally, the brain tissue was cryosectioned into slices with a thickness of 30 μm, and eight slices were randomly selected for further analysis.
The differentiation process of NPCs was visualized through the utilization of the NeuN/BrdU double staining technique. Tissue sections were subjected to an incubation period in a blocking buffer at RT for 1 to 2 h. The specimens were exposed to a rabbit anti-NeuN antibody (diluted at 1:500, Abcam, Cambridge, MA, UK) and a primary antibody, BrdU (diluted at 1:500), overnight at 4 °C. Afterwards, the sections were treated with anti-mouse 488 and anti-rabbit TRITC secondary antibodies for 2 h at RT.
(§4) The data were presented as mean ± SEM (standard error of the mean) and visualized using GRAPHPAD PRISM 6 (Graphpad Software, La Jolla, CA, USA). Statistical analysis was conducted utilizing one-way analysis of variance (ANOVA) followed by a post hoc test. Subsequent to the statistical treatment, the observed discrepancies were determined to be statistically significant (p < 0.05).

[2] = tested on: progenitor cells in the rodents’ hippocampi; experiment: Proliferation stage of neurogenesis: BrdU labeling, rats sacrificed 24 h after BrdU; type: in vivo, rat; details: i.p. 4.0 mg/kg/day for 28 days, BrdU pulse, vs vehicle; for proliferation-promoting activity (number of BrdU+ positive cells): nine-week-old rats (n = 4)
From the text: as §1
Adult rats were administered intraperitoneally with the prepared compounds at a dose of 4.0 mg/kg/day for a period of 28 days, followed by a BrdU pulse. After 24 h, the rats were sacrificed, and their brain tissues were isolated and cryosectioned. Immunohistochemical staining was performed and eight brain tissue slices were randomly selected for statistical analyzing.
Eight-week-old (or 10-week-old) SD male rats purchased from Peking University Health Science Center were acclimatized for one week at the Beijing Institute of Technology. All experimental protocols strictly adhered to the regulations governing the management of experimental animals and the animal ethics policy of the Beijing Institute of Technology.
as §2, §3
The assessment of new cell proliferation was conducted using BrdU staining. To eliminate endogenous peroxides, sections were exposed to 1% H2O2 for 30 min at RT. Cellular denaturation was achieved by treating the sections with 2 M HCl at 37 °C for 1 h, followed by rinsing in 0.1 M borate buffer (pH 8.5). Tissue sections were subjected to blocking in a solution consisting of 5% goat serum and 0.5% Triton X-100 in PBS at RT for 1–2 h. The specimens were then incubated overnight at 4 °C with a mouse primary antibody specific to BrdU (diluted at 1:500; Millipore, Billerica, MA, USA). Subsequently, the DAB kit was employed for 2 h of incubation at RT.
as §4

[3] = tested on: newborn cells in the subgranular zone; experiment: BrdU+ newborn cells, rats sacrificed 28 days after BrdU; type: in vivo, rat; details: nine-week-old rats (n = 2), i.p. 4.0 mg/kg/day for 28 days, BrdU pulse, Figure 7A
Method: The study employed a rat model, wherein nine-week-old rats were administered intraperitoneally with the compound at a dose of 4.0 mg/kg/day for 28 days and then treated with a pulse of BrdU. Instead of sacrificing the rats 24 h after the BrdU injections, the rats were sacrificed after another 28 days. The brains were then isolated and cryosectioned. Eight randomly selected slices were subjected to immunohistochemical staining. This staining enabled the co-localization of the BrdU-incorporated cells with the NeuN marker, enabling the definition of the compounds that could promote the differentiation of newborn neural progenitor cells into mature functional neurons. The compounds were dissolved in reagent-grade soybean oil containing 10% ethanol to reach a drug concentration of 2.8 mg/mL. The rats in the experimental group received intraperitoneal injections of the compounds at a dose of 4.0 mg/kg/d for 28 consecutive days. As a control, the vehicle group was administered injections of reagent-grade soybean oil containing 10% ethanol. BrdU (Sigma-Aldrich, St. louis, MA, USA) solution, prepared in physiological saline at a concentration of 10 mg/mL, was administered to all rats on day 29. Each rat received two injections of BrdU at a dosage of 50 mg/kg, with a 2 h interval between injections. The rats were euthanized 24 h (or 28 days) after the final BrdU injection. Two or four rats per group were anesthetized using pentobarbital sodium (70 mg/kg) and subsequently perfused with physiological saline. The brain tissue was carefully dissected and fixed in 4% paraformaldehyde at 4 °C for one week. Next, the brain tissue underwent dehydration using a phosphate-buffered saline (PBS) solution containing 20% to 30% sucrose. Finally, the brain tissue was cryosectioned into slices with a thickness of 30 μm, and eight slices were randomly selected for further analysis. The assessment of new cell proliferation was conducted using BrdU staining. To eliminate endogenous peroxides, sections were exposed to 1% H2O2 for 30 min at RT. Cellular denaturation was achieved by treating the sections with 2 M HCl at 37 °C for 1 h, followed by rinsing in 0.1 M borate buffer (pH 8.5). Tissue sections were subjected to blocking in a solution consisting of 5% goat serum and 0.5% Triton X-100 in PBS at RT for 1–2 h. The specimens were then incubated overnight at 4 °C with a mouse primary antibody specific to BrdU (diluted at 1:500; Millipore, Billerica, MA, USA). Subsequently, the DAB kit was employed for 2 h of incubation at RT. The differentiation process of NPCs was visualized through the utilization of the NeuN/BrdU double staining technique. Tissue sections were subjected to an incubation period in a blocking buffer at RT for 1 to 2 h. The specimens were exposed to a rabbit anti-NeuN antibody (diluted at 1:500, Abcam, Cambridge, MA, UK) and a primary antibody, BrdU (diluted at 1:500), overnight at 4 °C. Afterwards, the sections were treated with anti-mouse 488 and anti-rabbit TRITC secondary antibodies for 2 h at RT. The data were presented as mean ± SEM (standard error of the mean) and visualized using GRAPHPAD PRISM 6 (Graphpad Software, La Jolla, CA, USA). Statistical analysis was conducted utilizing one-way analysis of variance (ANOVA) followed by a post hoc test. Subsequent to the statistical treatment, the observed discrepancies were determined to be statistically significant (p < 0.05).

hCMEC/D3 cells = experiment: CCK-8 assay for cytotoxicity; type: cell-based; details: hCMEC/D3 cell lines, CCK-8, 48 h incubation
Method: hCMEC/D3 cells were obtained from the Cell Resource Center, Peking Union Medical College (PCRC). All cells were acquired in 2023 and were maintained in culture for no more than 10 continuous passages. The cells were cultured in DMEM (11995065, Gibco, Grand Island, NY, USA) supplemented with 10% FBS (164210-50, Procell, Austin, TX, USA), 100 units of penicillin, and […] of streptomycin (PB180120, Procell).
hCMEC/D3 cells (5 × 10^3) were seeded into 96-well plates in 90 μL of DMEM medium containing 10% fetal bovine serum per well. All test compounds were formulated as 10 mM stock solutions in DMSO (final concentration ≤ 0.5%). After overnight incubation, the test compound stock solution was diluted with DMEM medium containing 10% fetal bovine serum to every target concentration, and 10 μL of each was added to each well. Three parallel experiments were set up for each compound. After incubation for 48 h, 10 μL of CCK-8 reagent was added to each well in sequence according to the manufacturer’s instructions. After incubating in a 37 °C incubator for 1–2 h, the absorbance was measured at a wavelength of 450 nm, using a wavelength of 620 nm as a reference, and detected with a ThermoScientific Multiskan FC (Thermo Fisher Scientific). The graphs are representative results, and this experiment was independently repeated three times with similar results.

[4] = tested on: progenitors in rodents’ hippocampi; design: method as in PMID 28525839; details: cited from earlier work

CC(C)NC(=O)c1ccc(/C=C/c2ccc3c(c2)OCO3)cc1 [39b, (E)-4-(2-(benzo[d][1, 3]dioxol-5-yl)vinyl)-N-isopropylbenzamide]
neurogenesis-promoting activity (number of NeuN+ and BrdU+ cells, newborn neurons) ([1]; nine-week-old rats (n = 2), i.p. 4.0 mg/kg/day for 28 days, BrdU pulse, Figure 7B): ranked second in terms of activity, without statistical significance
proliferation-promoting activity (number of BrdU+ newborn cells) ([2]; eleven-week-old rats (n = 2), Figures 3-6, 4 mg/kg/day): significant proliferation-promoting activity; also recorded: activity comparable to that found in amides 8c, 8d, and 29b
proliferative activity over the longer 28 day period (number of BrdU+ cells) [3]: could promote the proliferation of progenitors

CC(=O)Nc1ccc(/C=C(\C#N)c2ccc3c(c2)OCO3)cc1 [32a, (Z)-N-(4-(2-(benzo[d][1, 3]dioxol-5-yl)-2-cyanovinyl)phenyl)acetamide]
neurogenesis-promoting activity (number of NeuN+ and BrdU+ cells), differentiation stage ([1]; Figure 9, 4 mg/kg): significant neurogenesis-promoting activity; also recorded: better activity than the clinical drug NSI-189
IC50 (hCMEC/D3 cells): 109 ± 12.9 µM
proliferation-promoting activity (number of BrdU+ positive cells) ([2]; Figure 8, 4 mg/kg/day): significant proliferation-promoting activity; also recorded: exhibited proliferative activity

CC(=O)Nc1ccc(/C(C#N)=C/c2ccc3c(c2)OCO3)cc1 [29a, (Z)-N-(4-(2-(benzo[d][1, 3]dioxol-5-yl)-1-cyanovinyl)phenyl)acetamide]
neurogenesis-promoting activity (number of NeuN+ and BrdU+ cells), differentiation stage ([1]; Figure 9, 4 mg/kg): did not show activity; also recorded: no significant neurogenesis-promoting activity
proliferation-promoting activity (number of BrdU+ positive cells) ([2]; Figure 8): inactive

CC(=O)Nc1ccc(/C=C/c2ccc3c(c2)OCO3)cc1 [WS-6, N-trans-3′,4′-methylenedioxystilben-4-yl acetamide]
promoting the proliferation of progenitors and differentiation into neurons [4]: excellent capacity

CC(C)CCNc1ncccc1C(=O)N1CCN(Cc2ccccc2)CC1 [NSI-189, reference compound]
neurogenesis-promoting activity (number of NeuN+ and BrdU+ cells), differentiation stage ([1]; Figure 9): no significant neurogenesis-promoting activity
proliferation-promoting activity (number of BrdU+ positive cells) ([2]; Figure 8): inactive
